ChEMBL document CHEMBL1201862, “PubChem BioAssay data set” (2004)
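Protocol summary: plate cells (96-well), add compound at 5 concentrations, incubate 48 h, interpolate endpoints linearly. The concentration for 50% growth inhibition is given as GI50.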 Active and inactive are the calls of the source. Cut-off read from the data, not from the text of the source: active = GI50 up to about 1.1 µM and inactive = higher.

Columns and labels:
Experiment in all cases: NCI tumour cell line growth inhibition, 48 h
A498 = test system: A498
ACHN = test system: ACHN
COLO 205 = test system: COLO 205
IGROV-1 = test system: IGROV-1
LOX IMVI = test system: LOX IMVI
M14 = test system: M14
MOLT-4 = test system: MOLT-4
Malme-3M = test system: Malme-3M
NCI-H522 = test system: NCI-H522
OVCAR-3 = test system: OVCAR-3
OVCAR-4 = test system: OVCAR-4
RXF 393 = test system: RXF 393
SF-268 = test system: SF-268
SK-MEL-5 = test system: SK-MEL-5
SN12C = test system: SN12C
SR = test system: SR
UACC-257 = test system: UACC-257
UO-31 = test system: UO-31
MDA-MB-231 = test system: MDA-MB-231

Measured: GI50

COc1ccc(N2C(=O)C3c4[nH]c5ccccc5c4C4CCCCC4C3C2=O)cc1 (stereo unspecified)
inactive: A498 24.6 µM | ACHN 22.5 µM | COLO 205 3.94 µM | IGROV-1 24.7 µM | LOX IMVI 20 µM | M14 18 µM | MOLT-4 16.1 µM | Malme-3M 5.56 µM | NCI-H522 18 µM | OVCAR-3 > 100 µM | OVCAR-4 5.4 µM | RXF 393 20.8 µM | SF-268 8.61 µM | SK-MEL-5 21.7 µM | SN12C 25.5 µM | SR 11.7 µM | UACC-257 27.8 µM | UO-31 26.4 µM

CCOc1ccccc1NC(=O)CC(C(=O)OC)C(=O)C(=O)OC (stereo unspecified)
inactive: A498 > 100 µM | ACHN > 100 µM | COLO 205 > 100 µM | IGROV-1 > 100 µM | LOX IMVI > 100 µM | M14 > 100 µM | MOLT-4 > 100 µM | Malme-3M > 100 µM | NCI-H522 > 100 µM | OVCAR-3 > 100 µM | OVCAR-4 > 100 µM | RXF 393 > 100 µM | SF-268 > 100 µM | SK-MEL-5 > 100 µM | SN12C > 100 µM | SR > 100 µM | UACC-257 > 100 µM | UO-31 > 100 µM

CC(=O)NNc1nc(C)c(C(=O)/C=C/c2ccc(NC(C)=O)cc2)s1
inactive: A498 > 100 µM | ACHN > 100 µM | COLO 205 > 100 µM | IGROV-1 > 100 µM | LOX IMVI > 100 µM | MOLT-4 > 100 µM | Malme-3M > 100 µM | NCI-H522 > 100 µM | OVCAR-3 > 100 µM | RXF 393 > 100 µM | SF-268 > 100 µM | SK-MEL-5 > 100 µM | SN12C > 100 µM | UACC-257 98.6 µM | UO-31 > 100 µM

CC(C)(C)c1c(C(C)(C)C)c(=O)c1=O
inactive: A498 86.1 µM | ACHN > 100 µM | COLO 205 > 100 µM | LOX IMVI > 100 µM | M14 > 100 µM | MDA-MB-231 > 100 µM | MOLT-4 > 100 µM | Malme-3M > 100 µM | OVCAR-3 > 100 µM | OVCAR-4 > 100 µM | RXF 393 > 100 µM | SF-268 > 100 µM | SK-MEL-5 > 100 µM | SN12C > 100 µM | UACC-257 > 100 µM | UO-31 > 100 µM

CC1(C)OC2COC3(CNO)OC(C)(C)OC3C2O1 (stereo unspecified)
inactive: A498 > 100 µM | ACHN > 100 µM | COLO 205 > 100 µM | IGROV-1 > 100 µM | LOX IMVI > 100 µM | M14 > 100 µM | MOLT-4 > 100 µM | Malme-3M > 100 µM | OVCAR-3 > 100 µM | OVCAR-4 > 100 µM | RXF 393 > 100 µM | SF-268 > 100 µM | SK-MEL-5 > 100 µM | SN12C > 100 µM | UACC-257 > 100 µM | UO-31 > 100 µM

CCOC(=O)CNC(=O)c1nc[nH]c1/N=N/N(C)C
inactive: A498 > 100 µM | ACHN > 100 µM | COLO 205 > 100 µM | IGROV-1 > 100 µM | LOX IMVI > 100 µM | M14 > 100 µM | MOLT-4 > 100 µM | Malme-3M > 100 µM | NCI-H522 > 100 µM | OVCAR-3 > 100 µM | OVCAR-4 > 100 µM | SF-268 > 100 µM | SK-MEL-5 > 100 µM | SN12C > 100 µM | SR > 100 µM | UACC-257 > 100 µM | UO-31 > 100 µM

O=C1/C(=C\c2ccc(Cl)cc2Cl)Sc2scc(-c3ccc(O)c(O)c3)[n+]21
inactive: ACHN 18.8 µM | COLO 205 19 µM | IGROV-1 21.2 µM | LOX IMVI 16.4 µM | M14 16.3 µM | MDA-MB-231 16.5 µM | MOLT-4 9.64 µM | NCI-H522 16.5 µM | OVCAR-3 6.47 µM | OVCAR-4 13.4 µM | RXF 393 12.4 µM | SF-268 30.3 µM | SK-MEL-5 7.98 µM | SN12C 15.9 µM | UACC-257 18.8 µM | UO-31 13 µM

O=C(CC/C(CC(=O)c1ccc(Br)cc1)=N\O)Nc1ccc(Cl)c(Cl)c1
inactive: A498 36.3 µM | ACHN 65 µM | COLO 205 37.8 µM | IGROV-1 60.7 µM | LOX IMVI > 100 µM | M14 > 100 µM | MOLT-4 52.7 µM | Malme-3M > 100 µM | NCI-H522 20.5 µM | OVCAR-3 57.5 µM | OVCAR-4 64 µM | RXF 393 29.2 µM | SF-268 > 100 µM | SK-MEL-5 29.8 µM | SN12C > 100 µM | SR 40.3 µM | UACC-257 44.4 µM | UO-31 > 100 µM

Nc1n2nc(-c3ccccc3)sc2n[n+]1CC(=O)c1ccccc1
inactive: A498 25.1 µM | ACHN 12.9 µM | COLO 205 17 µM | IGROV-1 12.6 µM | LOX IMVI 11.1 µM | M14 10.1 µM | MOLT-4 3.66 µM | Malme-3M > 10 µM | NCI-H522 15.8 µM | OVCAR-3 14.7 µM | OVCAR-4 47.2 µM | RXF 393 10.8 µM | SF-268 24.4 µM | SK-MEL-5 7.43 µM | SN12C 27.6 µM | UACC-257 26.1 µM | UO-31 16.6 µM
